In patent publication US5571822A, “Antitumor compounds” (The University of North Carolina at Chapel Hill, priority 1994, dated 1996):
Where two headings read alike, the source gives them in different places.

Assays:
tubulin [1] = assay: inhibition of radiolabeled colchicine binding to tubulin (ICB); set-up: species or system bovine; conditions: evaluated only when polymerization IC50 ≤ 1.0 μM; inhibitor equimolar with [3H]colchicine, 5-fold molar excess over tubulin
Method: Studies conducted in support of the present invention indicate that one mode of action of the 2-phenyl-4-quinolone compounds, as antitumor agents, is an ability to bind to tubulin and inhibit cell mitosis. […] […].
[…]. […] […].
Electrophoretically homogeneous bovine brain tubulin was purified as described previously (Hamel, et al., 1984). Combretastatin A-4 was a generous gift of Dr. G. R. Pettit, Arizona State University. Dihydrocombretastatin A-4 was prepared as described previously (Getahun et al., 1992). […]

tubulin [2] = assay: inhibition of tubulin polymerization (ITP); type: biochemical, bovine
Method: Electrophoretically homogeneous bovine brain tubulin was purified as described previously (Hamel, et al., 1984). […] Dihydrocombretastatin A-4 was prepared as described previously (Getahun et al., 1992).
The tubulin polymerization assay was performed as described previously (Li et al., 1994). In brief, tubulin at 1.2 mg/mL ([…]) was preincubated for 15 min at 26° C. in a 0.24 mL volume in 0.8M monosodium glutamate (pH 6.6 with NaOH in a 2M stock solution) with varying drug concentrations. The drug stock solutions were in dimethyl sulfoxide, and the final solvent concentration was 4% (v/v). […] All concentrations are in terms of the final reaction volume (0.25 mL). The reaction mixtures were chilled on ice, and […] of 10 mM GTP was added to each reaction mixture. Samples were transferred to cuvettes held at 0° C. by an electronic temperature controller in Gilford spectrophotometers. Baselines were established at 350 nm, and polymerization initiated by a temperature jump to 26° C. The jump took about 50 sec to complete. After 20 min, turbidity readings were recorded, and the temperature controller was set to 0° C. When depolymerization was complete, turbidity readings were again recorded. […] IC50 values were obtained graphically from inhibition of polymerization by different drug concentrations. Four spectrophotometers were used for each experimental sequence, with at least two control reactions (no drug) in each set.

K-562 = assay: NCI in vitro tumor cell screen, K-562 leukemia; type: cell-based; conditions: Homo sapiens, K562
Method: (§1) Selected 2-phenyl-4-quinolones were assayed using an in vitro, disease-oriented antitumor screen run by the National Cancer Institute (NCI) (e.g., Boyd 1989). The screen involved approximately 60 different cell lines and is a useful indicator of in vivo antitumor activity for a broad variety of tumor types (Grever et al., 1992; Monks et al., 1991). The cell lines tested included cells derived from the following solid tumor types: leukemia, non-small cell lung, colon, the central nervous system (CNS), melanoma, ovarian, renal, prostate, and breast cancers.

NCI-H226 = assay: NCI in vitro tumor cell screen, NCI-H226 non-small cell lung cancer; type: cell-based; conditions: Homo sapiens
Method: as §1

HCT116 = assay: NCI in vitro tumor cell screen, HCT116 colon cancer; type: cell-based; conditions: Homo sapiens, HCT-116
Method: as §1

KM202L = assay: NCI in vitro tumor cell screen, KM20L2 colon cancer; type: cell-based; conditions: Homo sapiens, KM-20L2
Method: as §1

SF-268 = assay: NCI in vitro tumor cell screen, SF-268 CNS tumor; type: cell-based; conditions: Homo sapiens
Method: as §1
(§2) melonoma; SF268 and SF295, CNS tumor cell lines; DU145, prostate cancer

SF-295 = assay: NCI in vitro tumor cell screen, SF-295 CNS tumor; type: cell-based
Method: as §1, §2

SK-Mel-5 = assay: NCI in vitro tumor cell screen, SK-Mel-5 melanoma; type: cell-based; conditions: Homo sapiens
Method: as §1, §2

OVCAR-4 = assay: NCI in vitro tumor cell screen, OVCAR-4 ovarian cancer; type: cell-based; conditions: Homo sapiens
Method: as §1

RXF-393 = assay: NCI in vitro tumor cell screen, RXF-393 renal cancer; type: cell-based; conditions: Homo sapiens
Method: as §1

[3] = tested on: approximately 60 different cell lines; assay: NCI in vitro disease-oriented human tumor cell screen, all cell lines; type: cell-based; conditions: for GI50: Homo sapiens
Text: The cell lines tested included cells derived from the following solid tumor types: leukemia, non-small cell lung, colon, the central nervous system (CNS), melanoma, ovarian, renal, prostate, and breast cancers.

OVCAR-3 = assay: NCI in vitro tumor cell screen, OVCAR-3 ovarian cancer; type: cell-based; conditions: Homo sapiens
Method: as §1

DU-145 = assay: NCI in vitro tumor cell screen, DU-145 prostate cancer; type: cell-based; conditions: Homo sapiens
Method: as §1, §2

MDA-N = assay: NCI in vitro tumor cell screen, MDA-N breast cancer; type: cell-based; conditions: Homo sapiens
Method: as §1

[4] = ± SD, tubulin 1.2 mg/mL, 26° C., 20 min, read-out: ITP IC50 (inhibition of tubulin polymerization)
[5] = SF-268, CNS tumor, read-out: logGI50 (converted)
[6] = Homo sapiens, SF-295; read-out: logGI50 (converted)
[7] = calculated from all cell lines tested (Table II), read-out: average logGI50 (converted)
[8] = average over cell lines, read-out: average log GI50 (converted)
[9] = values given in mM, read-out: IC50, inhibition of tubulin polymerization

ICB (% inhibition of colchicine binding) (tubulin [1]) [%]	IC50 (tubulin [2]; [4]) [mM]	SMILES	GI50 (K-562) [nM]	GI50 (HCT116) [nM]	GI50 (KM202L) [nM]	GI50 (SF-268; [5]) [nM]	GI50 (SF-295; [6]) [nM]	GI50 (SK-Mel-5) [nM]	GI50 [3, 7] [nM]	also measured
16 ± 7	0.00073 ± 0.0002	Nc1cccc(-c2cc(=O)c3cc4c(cc3[nH]2)OCO4)c1 [compound 10, 3'-Amino-6,7-methylenedioxy-2-phenyl-4-quinolone]	891	479	708	759	2400	933	1620	GI50 (NCI-H226): 2190 nM; GI50 (OVCAR-4): 38900 nM; GI50 (RXF-393): 603 nM
17 ± 11	0.00065 ± 0.0001	CNc1cccc(-c2cc(=O)c3cc4c(cc3[nH]2)OCO4)c1 [compound 11, 3'-N-Methylamino-6,7-methylenedioxy-2-phenyl-4-quinolone]	398	245	331	5500	324	447	513	GI50 (NCI-H226): 537 nM; GI50 (OVCAR-3): 339 nM; GI50 (RXF-393): 363 nM
26 ± 3	0.00047 ± 0.0001	O=c1cc(-c2cccc(O)c2)[nH]c2cc3c(cc12)OCO3 [compound 12, 3'-Hydroxy-6,7-methylenedioxy-2-phenyl-4-quinolone]	724	1820	3310	2290	5500	1480	3090	GI50 [3, 8]: 3160 nM
51 ± 3	0.00053 ± 0.0001	O=c1cc(-c2cccc(F)c2)[nH]c2cc3c(cc12)OCO3 [compound 13, 3'-Fluoro-6,7-methylenedioxy-2-phenyl-4-quinolone]	339	219	–	661	141	269	339	GI50 (NCI-H226): 955 nM; GI50 (OVCAR-3): 288 nM
45 ± 7	0.00037 ± 3e-05	O=c1cc(-c2cccc(Cl)c2)[nH]c2cc3c(cc12)OCO3 [compound 14, 3'-Chloro-6,7-methylenedioxy-2-phenyl-4-quinolone]	–	–	269	–	–	209	501	GI50 (OVCAR-4): > 75900 nM
26 ± 3	0.00053 ± 0.0001	O=c1cc(-c2cccc(Br)c2)[nH]c2cc3c(cc12)OCO3 [compound 15, 3'-Bromo-6,7-methylenedioxy-2-phenyl-4-quinolone]	3470	3390	3090	3020	331	4370	3310	GI50 (NCI-H226): 3800 nM; GI50 (OVCAR-3): 4270 nM; GI50 (OVCAR-4): > 100000 nM; GI50 (RXF-393): 2400 nM; GI50 [3, 8]: 3160 nM
5 ± 7	0.00082 ± 0.0002	O=c1cc(-c2cccc(C(F)(F)F)c2)[nH]c2cc3c(cc12)OCO3 [compound 16, 3'-Trifluoromethyl-6,7-methylenedioxy-2-phenyl-4-quinolone]	–	–	1380	–	–	–	2750	–
–	0.0061 ± 0.001	Nc1ccc2[nH]c(-c3cccc(Cl)c3)cc(=O)c2c1 [compound 20, 3'-Chloro-6-amino-2-phenyl-4-quinolone]	–	–	3160	–	–	–	5500	activity in tubulin polymerization assay, in words (tubulin [2]): moderately active; GI50 (OVCAR-4): > 100000 nM
–	> 0.04	Nc1ccc2[nH]c(-c3cccc(C(F)(F)F)c3)cc(=O)c2c1 [compound 21, 3'-Trifluoromethyl-6-amino-2-phenyl-4-quinolone]	–	–	34700	–	–	–	39800	activity in tubulin polymerization assay, in words (tubulin [2]): inactive; IC50 (tubulin [2]; [9]): > 0.04 mM
–	0.0087 ± 0.003	COc1cccc(-c2cc(=O)c3cc(N)ccc3[nH]2)c1 [compound 22, 3'-Methoxy-6-amino-2-phenyl-4-quinolone]	–	–	3470	–	–	–	4570	activity in tubulin polymerization assay, in words (tubulin [2]): moderately active
–	–	CC(=O)Nc1ccc2[nH]c(-c3cccc(F)c3)cc(=O)c2c1 [compound 25, 3'-Fluoro-6-acetamido-2-phenyl-4-quinolone]	–	–	–	–	–	–	–	GI50 (SF-268; SF-268, read-out: logGI50 (converted)): 25700 nM; GI50 (SF-295; Homo sapiens, SF-295, read-out: logGI50 (converted)): 38900 nM
58 ± 5	0.00072 ± 0.0002	O=c1cc(-c2cccc(OC(F)(F)F)c2)[nH]c2ccc(N3CCCC3)cc12 [compound 29, 3'-Trifluoromethoxy-6-pyrrolinyl-2-phenyl-4-quinolone]	–	–	–	–	–	–	–	–
53 ± 6	0.00078 ± 0.0002	COc1cccc(-c2cc(=O)c3cc(N4CCCCC4)ccc3[nH]2)c1 [compound 30, 3'-Methoxy-6-piperidinyl-2-phenyl-4-quinolone]	–	–	–	–	–	–	–	–
43 ± 10	0.00036 ± 0.0001	COc1cccc(-c2cc(O)c3cc(N4CCOCC4)ccc3n2)c1 [compound 31, 3'-Methoxy-6-morpholinyl-2-phenyl-4-quinolone]	24.5	26.9	33.9	53.7	49	35.5	56.2	GI50 (NCI-H226): 33.9 nM; GI50 (OVCAR-3): 20 nM; GI50 (OVCAR-4): 6310 nM; GI50 (DU-145): 43.7 nM; GI50 (MDA-N): 8.32 nM; antitumor activity / cytotoxicity, in words [3]: highly potent, with an antitumor activity comparable to that of compound 23
–	0.014 ± 0.002	COc1cccc(-c2cc(=O)c3cc(N4CCN(C)CC4)ccc3[nH]2)c1 [compound 32, 3'-Methoxy-6-methylpiperazinyl-2-phenyl-4-quinolone]	537	437	1510	1860	1820	912	1550	IC50 (tubulin [2]; [9]): 0.014 mM; GI50 (NCI-H226): 1510 nM; GI50 (OVCAR-4): > 10000 nM; GI50 (RXF-393): 457 nM; GI50 (DU-145): 2510 nM; GI50 (MDA-N): 200 nM
–	0.0013 ± 7e-05	COc1cccc(-c2cc(=O)c3cc(NC(=O)c4ccccc4)ccc3[nH]2)c1 [compound 33, 3'-Methoxy-6'-benzamido-2-phenyl-4-quinolone]	–	–	–	–	–	–	–	–
26 ± 10	0.00063 ± 0.0002	O=c1cc(-c2ccccc2)[nH]c2cc3c(cc12)OCO3 [compound 34]	–	–	–	–	–	–	–	–
39 ± 8	0.00057 ± 0.0001	COc1cccc(-c2cc(=O)c3cc4c(cc3[nH]2)OCO4)c1 [compound 35]	–	–	–	–	–	–	–	–
29 ± 7	0.0007 ± 3e-05	CN(C)c1cccc(-c2cc(=O)c3cc4c(cc3[nH]2)OCO4)c1 [compound 36]	–	–	–	–	–	–	–	–

SMILES	ICB (% inhibition of colchicine binding) (tubulin [1]) [%]	IC50 (tubulin [2]; [4]) [mM]	GI50 (K-562) [nM]	GI50 (HCT116) [nM]	GI50 (KM202L) [nM]	GI50 (SF-268; [5]) [nM]	GI50 (SF-295; [6]) [nM]	GI50 (SK-Mel-5) [nM]	GI50 [3, 7] [nM]	also measured
COc1ccc(/C=C\c2cc(OC)c(OC)c(OC)c2)cc1O [combretastatin A-4, reference compound]	94 ± 2	–	–	–	–	–	–	–	–	–
COc1ccc(CCc2cc(OC)c(OC)c(OC)c2)cc1O [dihydrocombretastatin A-4, reference compound]	65 ± 4	0.00063 ± 3e-05	–	–	–	–	–	–	–	–
COc1cc([C@@H]2c3cc4c(cc3[C@H](O)[C@H]3COC(=O)[C@H]23)OCO4)cc(OC)c1OC [podophyllotoxin, reference compound]	84 ± 2	–	–	–	–	–	–	–	–	–
